{"source": "paper PMC5529524", "about": "“2-Oxoadenosine induces cytotoxicity through intracellular accumulation of 2-oxo-ATP and depletion of ATP but not via the p38 MAPK pathway” (Scientific Reports, 2017)", "assay_type_in_all_cases": "biochemical", "key": {"[1]": {"target": "T1, adenosine kinase (recombinant human ADK, rhADK) (Homo sapiens, UniProt P55263)", "T1 sequence (P55263 2-362)": "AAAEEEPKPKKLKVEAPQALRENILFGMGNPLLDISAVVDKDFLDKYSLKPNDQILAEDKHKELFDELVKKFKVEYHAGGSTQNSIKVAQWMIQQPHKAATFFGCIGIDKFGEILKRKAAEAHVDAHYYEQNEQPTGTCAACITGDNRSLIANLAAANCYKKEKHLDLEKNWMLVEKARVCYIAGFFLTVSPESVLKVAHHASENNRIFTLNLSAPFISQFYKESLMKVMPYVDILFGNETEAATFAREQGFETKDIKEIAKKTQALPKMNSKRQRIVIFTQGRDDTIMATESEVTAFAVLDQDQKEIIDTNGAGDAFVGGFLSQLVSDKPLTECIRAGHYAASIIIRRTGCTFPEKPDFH", "assay": "in vitro rhADK phosphorylation assay, HPLC of monophosphate product"}, "[2]": {"target": "T1, adenosine kinase (recombinant human ADK, rhADK)", "assay": "in vitro rhADK phosphorylation assay, HPLC of 2-oxo-AMP"}, "[3]": {"target": "T1, adenosine kinase (recombinant human ADK, rhADK)", "assay": "in vitro rhADK enzyme assay, HPLC of 2-oxo-AMP product (IC50 […] with Ado as substrate)"}}}
{"smiles": "Nc1nc(Cl)nc2c1ncn2[C@@H]1O[C@H](CO)[C@@H](O)[C@H]1O", "note": "[2-chloroadenosine]", "values": [{"measurement": "in vitro rhADK phosphorylation assay, HPLC of monophosphate product", "setting": "[1]", "result": "Chromatograms of the reaction products of ADK with 2-Cl-Ado or AICAR showed novel peaks"}]}
{"smiles": "Nc1[nH]c(=O)nc2c1ncn2[C@@H]1O[C@H](CO)[C@@H](O)[C@H]1O", "note": "[2-oxoadenosine, 1,2-Dihydro-2-oxoadenosine]", "values": [{"measurement": "in vitro rhADK phosphorylation assay, HPLC of 2-oxo-AMP", "setting": "[2]", "result": "Recombinant human ADK, ATP and nucleosides 2-oxo-Ado (a) or Ado (b) were reacted"}]}
{"smiles": "C[S+]([O-])c1ccc(-c2nc(-c3ccncc3)c(-c3ccc(F)cc3)[nH]2)cc1", "note": "(stereo not drawn) [SB203580]", "values": [{"measurement": "IC50", "setting": "[3]", "result": 8.6, "unit": "µM"}]}
